Experimental data: the NIST ThermoML archive (doi:10.1021/je301147k)

Assay: mn = molality of the nth substance listed, in mol/kg
Settings: for electrical conductivity: 100 kPa, Liquid, CyberScan CON1500 Bench Conductivity Meter; for surface tension liquid-gas: 298.2 K, Ring tensiometer

CCCCCCCCCCCC[n+]1ccn(C)c1.[Cl-] [1-dodecyl-3-methylimidazolium chloride] + O
electrical conductivity [S/m]
Settings	288.15 K	293.15 K	298.15 K	303.15 K
m1 = 0.001	0.00787	0.00877	0.00992	0.0109
m1 = 0.002	0.0149	0.0166	0.0187	0.0207
m1 = 0.003	0.0219	0.0245	0.0273	0.0304
m1 = 0.004	0.0289	0.0324	0.0367	0.0408
m1 = 0.005	0.0355	0.0401	0.0448	0.0503
m1 = 0.006	0.0433	0.0481	0.054	0.0598
m1 = 0.007	0.0491	0.0548	0.0617	0.0687
m1 = 0.008	0.0562	0.0637	0.071	0.0787
m1 = 0.009	0.0633	0.0711	0.0795	0.0885
m1 = 0.01	0.0688	0.0778	0.0871	0.0961
m1 = 0.011	0.0764	0.0861	0.0964	0.107
m1 = 0.012	0.0832	0.0934	0.105	0.117
m1 = 0.013	0.0886	0.0991	0.112	0.124
m1 = 0.014	0.095	0.106	0.118	0.132
m1 = 0.015	0.1	0.112	0.126	0.14
m1 = 0.016	0.105	0.117	0.131	0.145
m1 = 0.017	0.107	0.12	0.136	0.15
m1 = 0.018	0.111	0.125	0.14	0.155
m1 = 0.019	0.115	0.129	0.144	0.16
m1 = 0.02	0.117	0.132	0.146	0.165
m1 = 0.021	0.12	0.135	0.15	0.169
m1 = 0.022	0.122	0.137	0.154	0.173
m1 = 0.023	0.125	0.141	0.158	0.178
m1 = 0.024	0.128	0.144	0.162	0.181
m1 = 0.025	0.131	0.147	0.166	0.185

Settings	surface tension liquid-gas [mN/m]
m1 = 0.001	69.37
m1 = 0.002	63.46
m1 = 0.004	58.36
m1 = 0.006	53.85
m1 = 0.01	47.71
m1 = 0.014	43.05
m1 = 0.018	38.43
m1 = 0.02	38.26
m1 = 0.025	38.38
m1 = 0.03	38.61
m1 = 0.04	38.35
m1 = 0.05	38.55

CCCCCCCCCCCCn1cc[n+](C)c1.[I-] [1-dodecyl-3-methylimidazolium iodide] + O
electrical conductivity [S/m]
Settings	288.15 K	293.15 K	298.15 K	303.15 K
m1 = 0.0005	0.00423	0.00497	0.00565	0.00618
m1 = 0.001	0.00828	0.00961	0.0108	0.0118
m1 = 0.002	0.0151	0.017	0.0191	0.0211
m1 = 0.003	0.0227	0.0255	0.0287	0.0316
m1 = 0.004	0.0292	0.0332	0.0373	0.0413
m1 = 0.005	0.0334	0.0388	0.0452	0.0506
m1 = 0.006	0.036	0.0418	0.0483	0.0552
m1 = 0.007	0.0368	0.0432	0.05	0.0579
m1 = 0.008	0.0378	0.0444	0.0516	0.0595
m1 = 0.009	0.0393	0.0459	0.0532	0.0614
m1 = 0.01	0.04	0.047	0.0543	0.0634
m1 = 0.011	0.0412	0.0485	0.0558	0.0653
m1 = 0.012	0.042	0.0502	0.0576	0.0672
m1 = 0.013	0.0425	0.0508	0.0589	0.0687
m1 = 0.014	0.0441	0.0519	0.06	0.0699
m1 = 0.015	0.0448	0.0535	0.0616	0.0712
m1 = 0.016	0.0458	0.0542	0.0631	0.0728
m1 = 0.017	0.0471	0.0556	0.0645	0.0739
m1 = 0.018	0.0483	0.0568	0.066	0.0758
m1 = 0.019	0.0489	0.0574	0.0667	0.0774
m1 = 0.02	0.0496	0.0582	0.0677	0.0784

Settings	surface tension liquid-gas [mN/m]
m1 = 0.0001	69.81
m1 = 0.0005	65.15
m1 = 0.001	56.7
m1 = 0.002	46.92
m1 = 0.003	38.08
m1 = 0.004	33.49
m1 = 0.005	31.45
m1 = 0.006	31.48
m1 = 0.007	31.39
m1 = 0.009	31.5
m1 = 0.012	31.6
m1 = 0.016	31.57
m1 = 0.02	31.66

CCCCCCCCCCCCn1cc[n+](C)c1.[Br-] [1-dodecyl-3-methylimidazolium bromide] + O
electrical conductivity [S/m]
Settings	288.15 K	293.15 K	298.15 K	303.15 K
m1 = 0.001	0.00769	0.00898	0.01	0.0112
m1 = 0.002	0.0157	0.0181	0.0198	0.0223
m1 = 0.003	0.0224	0.0261	0.029	0.032
m1 = 0.004	0.0302	0.0345	0.0386	0.0427
m1 = 0.005	0.0379	0.043	0.048	0.0519
m1 = 0.006	0.0445	0.0504	0.0563	0.0626
m1 = 0.007	0.052	0.0589	0.0655	0.0728
m1 = 0.008	0.0589	0.0664	0.0741	0.0824
m1 = 0.009	0.0657	0.074	0.0823	0.0916
m1 = 0.01	0.0717	0.0814	0.0909	0.101
m1 = 0.011	0.0758	0.0853	0.0963	0.107
m1 = 0.012	0.0776	0.0876	0.0986	0.111
m1 = 0.013	0.0799	0.0907	0.102	0.116
m1 = 0.014	0.0814	0.0922	0.104	0.118
m1 = 0.015	0.0837	0.0947	0.107	0.122
m1 = 0.016	0.0854	0.0966	0.11	0.124
m1 = 0.017	0.0874	0.0986	0.112	0.127
m1 = 0.018	0.0882	0.0998	0.113	0.129
m1 = 0.019	0.0893	0.101	0.115	0.131
m1 = 0.02	0.0913	0.104	0.118	0.134
m1 = 0.021	0.0923	0.106	0.12	0.136
m1 = 0.022	0.0935	0.107	0.122	0.139
m1 = 0.023	0.0948	0.109	0.125	0.141
m1 = 0.024	0.0964	0.111	0.127	0.144
m1 = 0.025	0.0985	0.112	0.129	0.146

Settings	surface tension liquid-gas [mN/m]
m1 = 0.0005	68.38
m1 = 0.001	62.44
m1 = 0.002	58.12
m1 = 0.004	51.39
m1 = 0.006	43.7
m1 = 0.008	40.35
m1 = 0.01	36.83
m1 = 0.012	36.51
m1 = 0.014	36.56
m1 = 0.016	36.65
m1 = 0.018	36.6
m1 = 0.02	36.57
m1 = 0.025	36.54
m1 = 0.03	36.48
m1 = 0.04	36.67
m1 = 0.05	36.67
